Experiment: Binding affinity to CypD (unknown origin)

Question: Which Ki does the source give for `O=C(Nc1ccc2nc(-c3ccco3)c(-c3ccco3)nc2c1)N1CCCC1` here?
Answer: Its Ki is 2 µM.

Source: BindingDB's records for PubMed 27409354 (n/a, 2016)
